In PMC8150775, “Repositioning Azelnidipine as a Dual Inhibitor Targeting CD47/SIRPα and TIGIT/PVR Pathways for Cancer Immuno-Therapy” (Biomolecules, 2021):

How the values were obtained:
human TIGIT/PVR = target: T1, human TIGIT/PVR (Homo sapiens, UniProt P15151); test: Blocking assay, human PVR protein binding to CHOK1-hTIGIT cells; conditions: concentration gradient; read-out: IC50, blocking human TIGIT/PVR (hPVR binding)
T1 construct: purchased ACRO Biosystem CD5-H82F6; host or cells: soluble protein purchased; TIGIT on CHOK1-hTIGIT cells (lenti-viral transfection)
Protocol: (§1) The abilities of small molecule inhibitors (SMIs) (purchased from TargetMol, Shanghai, China) to block the binding of SIRPα protein to CHOK1-CD47 cells or PVR protein to CHOK1-TIGIT cells were determined by flow cytometry, as previously reported. The SMIs at indicated concentrations were incubated with Fc-tagged SIRPα or PVR protein for 30 min at 4°C, followed by incubating with the indicated cells for another 30 min. Human SIRPα protein (SIA-H5251, ACRO Biosystem, Beijing, China), mouse SIRPα protein (SIA-M5258, ACRO Biosystem, Beijing, China), human PVR protein (CD5-H82F6, ACRO Biosystem, Beijing, China), and mouse PVR protein (50259-M03H, Sino Biological, Beijing, China) were used. PE-conjugated anti-human IgG antibody was used to detect the Fc protein bind to cells. Cells incubated with the Fc proteins and anti-human IgG antibody without the SMIs serve as the positive control. The mean fluorescent intensity (MFI) of each sample was detected and recorded by a flow cytometry. The blocking efficacy of the SMIs was calculated as the equation: (MFI of the positive control-MFI of the SMI)/MFI of the positive control × 100%.

mouse CD47/SIRPα = target: T2, mouse CD47/SIRPα (Mus musculus, UniProt P97797); test: Blocking assay, mouse SIRPα protein binding to CHOK1-mCD47 cells; conditions: concentration gradient; read-out: IC50, blocking mouse CD47/SIRPα (mSirpα binding)
T2 construct: purchased ACRO Biosystem SIA-M5258; host or cells: soluble protein purchased; CD47 on CHOK1-mCD47 cells (lenti-viral transfection)
Protocol: as §1, with “(SIA-[…],” for “(SIA-H5251,”, “(SIA-[…],” for “(SIA-M5258,”, “(CD5-[…],” for “(CD5-H82F6,”, “(50259-[…],” for “(50259-M03H,”

CT26 tumors = test: CD8+ T cell depletion CT26 tumor model; type: in vivo, BALB/c mice
Protocol: To establish the CD8^+ T cell depletion model, BALB/c mice were injected with 200 μg of CD8-depleting antibody (clone: YTS169.4) or matched Rat IgG isotype control (Sigma-Aldrich) the day before tumor inoculation and as well as weekly thereafter, resulting in a total of 3 injections per mouse. Depletion efficacy of CD8^+ T cells was verified by a flow cytometry with the blood sample of mice treated with indicated antibodies for 7 days.
Figure S2. The antitumor effects of Azelnidipine in CD8+ T cell depleted CT26 tumor model.
(A) CT26 tumor-bearing mice were i.p. administrated with 5 mg/kg of Azelnidipine daily as in the schematic diagram. (B) Blood samples of the mice treated with 200 μg anti-CD8 (YTS 169.4) or Rat IgG control for seven days were used to analyze the depletion efficacy by flow cytometry.
(C) Tumor growth curve of CT26 tumor-bearing mice treated with normal saline or Azelnidipine alone (n = 5 or 6). (D) Representative flow cytometry plots and summary data of the MDSCs in the tumor tissues of the Rat IgG treated groups (NS and Azelnidipine). (E) Representative flow cytometry histograms and summary data of the expression of SIRPα on M-MDSCs in the tumor tissues of the Rat IgG treated groups (NS and Azelnidipine). *, P<0.05.
(§2) (1 picture or pasted object on this page, not shown here)

CD47 = test: Flow cytometry of CD47 expression on CT26 cells in vitro; type: cell-based, mouse; conditions: 20 μM, 24 h
Protocol: Cells in good growth condition were harvested and used to detect the expression of CD47 and PVR. Antibodies anti-human CD47 APC, anti-human PVR PE, anti-mouse-CD47 APC, anti-mouse-PVR APC, and matched isotype controls were purchased from eBioscience, San Diego, CA, USA. The effects of azelnidipine on the expression of CD47 and PVR was determined by incubating CT26 cells with 20 μM of azelnidipine for 24 h, or directly analyzing the tumor cells from tumor tissues of CT26-bearing mice treated with or without azelnidipine.
Figure S3. The effects of Azelnidipine on the expression of CD47 and PVR on CT26 tumor cells. (A and B) CT26 cells were incubated with 20 μM Azelnidipine or vehicle control for 24h, and analyzed the expression of CD47 (A) and PVR (B). The gray shaded histogram represents the isotype, the red line represents the cells treated with vehicle control, and the blue line represents the cells treated with Azelnidipine. (C and D) Tumor cells (CD45-) derived from the tumor tissues of CT26 tumor-bearing mice treated with normal saline (NS) or 5 mg/kg Azelnidipine for twelve days, were analyzed for the expression of CD47 (C) and PVR (D). n.s. means not […]
as §2

[1] = test system: peripheral blood mononuclear cells; parameters: method as in PMID 29398679, PMID 20606305; conditions: cited from earlier work
IL-12 p40 = test system: IL-12 p40; parameters: method as in PMID 19438591; conditions: cited from earlier work
various tumor cells = test system: various tumor cells; parameters: method as in earlier work; conditions: cited from earlier work
tumor = test system: tumor; parameters: method as in earlier work; conditions: cited from earlier work
[2] = 5 mg/kg i.p., Rat IgG treated groups

T1 sequence (P15151 21-343 limits assumed): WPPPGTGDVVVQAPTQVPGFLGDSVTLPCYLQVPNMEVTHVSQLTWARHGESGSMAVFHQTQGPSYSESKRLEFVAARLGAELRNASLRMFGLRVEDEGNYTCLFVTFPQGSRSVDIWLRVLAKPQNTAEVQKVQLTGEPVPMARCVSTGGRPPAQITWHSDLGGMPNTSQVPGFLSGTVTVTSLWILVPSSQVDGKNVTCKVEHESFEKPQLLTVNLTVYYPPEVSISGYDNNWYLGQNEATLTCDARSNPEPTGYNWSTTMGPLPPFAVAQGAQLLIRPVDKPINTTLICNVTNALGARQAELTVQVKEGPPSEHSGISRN
T2 sequence (P97797 32-373 limits assumed): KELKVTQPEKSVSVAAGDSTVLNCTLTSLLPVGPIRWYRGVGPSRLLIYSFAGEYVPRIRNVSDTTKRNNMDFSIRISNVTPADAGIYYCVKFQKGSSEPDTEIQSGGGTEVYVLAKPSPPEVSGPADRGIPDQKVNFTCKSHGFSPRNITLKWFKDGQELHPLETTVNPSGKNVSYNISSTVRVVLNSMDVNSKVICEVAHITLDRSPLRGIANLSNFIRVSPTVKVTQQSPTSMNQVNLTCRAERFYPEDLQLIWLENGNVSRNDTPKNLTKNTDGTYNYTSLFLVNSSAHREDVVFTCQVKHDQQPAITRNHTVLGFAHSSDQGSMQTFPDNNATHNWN

Question: With CC1=C(C(=O)OC(C)C)C(c2cccc([N+](=O)[O-])c2)C(C(=O)OC2CN(C(c3ccccc3)c3ccccc3)C2)=C(N)N1 (centres unmarked) [Azelnidipine] as the molecule, how does the IC50 (human TIGIT/PVR) read?
Answer: ~28 µM

Question: What about the IC50 (mouse CD47/SIRPα) of the same molecule?
Answer: ~37 µM

Question: What about the “anti-tumor effect with CD8+ T cells depleted” value (CT26 tumors; 5 mg/kg i.p. daily, CD8-depleting antibody) of the same molecule?
Answer: abrogated

Question: And the “CT26 tumor growth, Rat IgG treated groups” value (CT26 tumors; 5 mg/kg i.p. daily, Rat IgG isotype control)?
Answer: significantly inhibit tumor growth

Question: And the “expression level of SIRPα on MDSCs in CT26 tumor tissues, NS vs azelnidipine” value (CT26 tumors; [2])?
Answer: no significant difference

Question: And the “infiltration of MDSCs in CT26 tumor tissues, NS vs azelnidipine” value (CT26 tumors; [2])?
Answer: no significant difference

Question: And the “expression of CD47 on CT26 cells” value (CD47)?
Answer: without suppressing

Question: What about the “cytokine secretion of peripheral blood mononuclear cells” value [1] of the same molecule?
Answer: inhibit

Question: What about the “secretion of IL-12 p40 mediated by immune complex” value (IL-12 p40) of the same molecule?
Answer: enhance the secretion of IL-12 p40

Question: And the “growth of various tumor cells in vitro” value (various tumor cells)?
Answer: inhibit the growth of various tumor cells in vitro

Question: And the “tumor growth in vivo” value (tumor)?
Answer: significantly inhibit the tumor growth in vivo
